Experimental findings from the NIST ThermoML archive (doi:10.1021/je060479w) are described below.

± gives the expanded uncertainty stated by the source.

The conditions of one data set: 298.2 K; 101.33 kPa; Liquid; Alternating current cell with electrodes.
For the compound `CC(O)C(=O)[O-].[NH3+]CCO` (stereo unspecified) [2-hydroxyethylammonium lactate], the electrical conductivity was found to be 0.03775 ± 1e-05 S/m.
Consider `NCCO.O=CO` [2-hydroxyethylammonium formate], for which the electrical conductivity came to 0.3291 ± 0.0001 S/m.
On the same count and under the same terms, the same measure for `CC(=O)[O-].[NH3+]CCO` [2-hydroxyethylammonium acetate]: 0.0692 ± 0.0001 S/m.
Still for that read-out and setting: the same measure for `CC(O)C(=O)O.OCCN(CCO)CCO` [triethanolamine lactate]: 0.009 ± 0.001 S/m.
Same read-out and setting: to `CC(=O)O.OCCN(CCO)CCO` [triethanolammonium acetate] belongs 0.04958 ± 1e-05 S/m.

The same data set, now with this note: 298.2 K; 101.33 kPa; Liquid; Pycnometric method.
The term mass density denotes mass per unit of volume. As for `CC(O)C(=O)[O-].[NH3+]CCO` (stereo unspecified) [2-hydroxyethylammonium lactate], the mass density came out at 1202 ± 26 kg/m3.
With `NCCO.O=CO` [2-hydroxyethylammonium formate], the mass density was determined as 1204 ± 26 kg/m3.
Turning to `CC(=O)[O-].[NH3+]CCO` [2-hydroxyethylammonium acetate], the mass density was 1120 ± 26 kg/m3.
Same read-out and setting: to `CC(O)C(=O)O.OCCN(CCO)CCO` [triethanolamine lactate] belongs 1222 ± 26 kg/m3.
Still for that read-out and setting: to `CC(=O)O.OCCN(CCO)CCO` [triethanolammonium acetate] belongs 1120 ± 26 kg/m3.

Staying with this data set, now noted: 298.2 K; 101.33 kPa; Liquid; rotary viscometer.
For orientation: viscosity means the resistance of a fluid to flow. With `CC(O)C(=O)[O-].[NH3+]CCO` (stereo unspecified) [2-hydroxyethylammonium lactate], the viscosity is reported as 1200 mPa·s.
Consider `NCCO.O=CO` [2-hydroxyethylammonium formate], for which the viscosity is 118 mPa·s.
Still for that read-out and setting: the same measure for `CC(=O)[O-].[NH3+]CCO` [2-hydroxyethylammonium acetate]: 640 mPa·s; for `CC(O)C(=O)O.OCCN(CCO)CCO` [triethanolamine lactate]: 455 mPa·s; for `CC(=O)O.OCCN(CCO)CCO` [triethanolammonium acetate]: 342 mPa·s.

The same data set, now with this note: Crystal; DTA.
As for `CC(O)C(=O)[O-].[NH3+]CCO` (stereo unspecified) [2-hydroxyethylammonium lactate], the Normal melting temperature was -58.5 ± 0.5 °C.
Take `O=CO.OCCN(CCO)CCO` [triethanolamine formate]: the Normal melting temperature is 67.6 ± 0.5 °C.
Turning to `NCCO.O=CO` [2-hydroxyethylammonium formate], the Normal melting temperature is -82.2 ± 0.5 °C.
On to `CC(=O)[O-].[NH3+]CCO` [2-hydroxyethylammonium acetate], for which the Normal melting temperature was -70.9 ± 0.5 °C.
On the same count and under the same terms, the same measure for `CC(O)C(=O)O.OCCN(CCO)CCO` [triethanolamine lactate]: -54.8 ± 0.5 °C; for `CC(=O)O.OCCN(CCO)CCO` [triethanolammonium acetate]: -72.2 ± 0.5 °C.

The data set is the same for the next values; noted with them: Glass; DTA.
Consider `CC(O)C(=O)[O-].[NH3+]CCO` (stereo unspecified) [2-hydroxyethylammonium lactate], for which the Glass transition temperature was -63.7 ± 5 °C.
The same measure, in the same setting: the same measure for `NCCO.O=CO` [2-hydroxyethylammonium formate]: -85.9 ± 5 °C; for `CC(=O)[O-].[NH3+]CCO` [2-hydroxyethylammonium acetate]: -75.8 ± 5 °C; for `CC(O)C(=O)O.OCCN(CCO)CCO` [triethanolamine lactate]: -59.4 ± 5 °C.
Still for that read-out and setting: to `CC(=O)O.OCCN(CCO)CCO` [triethanolammonium acetate] belongs -78.8 ± 5 °C.
